For experiment [1], the system named is galactitol accumulation in the tissues of the lens, sciatic nerve, and diaphragm. Put plainly: Galactosemic rats: lowering of dulcitol (galactitol) accumulation in lens, sciatic nerve and diaphragm. The class given is in vivo, Male Sprague-Dawley rats. The note with it: for % Lowering dulcitol accumulation IN VIVO, D: diaphragm. The procedure: Such experiments are exemplified hereinbelow after the listing of the following general comments pertaining to these experiments:
Male Sprague-Dawley rats, weighing approximately 90 grams were separated into groups of equal average body weight, with six animals per group. The animals were housed in cages of six animals each and maintained on 12 hour night/12 hour day cycles. Except as otherwise noted, the animals were given food and water ad libitum.
On day 1, the galactosemic control group and all drug-treated groups were given access to 20% galactose chow (Bio-Serv, Frenchtown, N.J.). Animals in the control group were given access to 20% glucose chow (Bio-Serv). Test compounds were administered either in the diet or by gavage as a suspension in 2% Tween 80 in saline. In experiments in which gavage dosing was used, the animals were administered the test compound daily at approximately the same hour each day. Food intake and body weight were determined twice during the course of the experiment. In cases in which the compound was administered in the diet, the average dose was calculated on the basis of the actual average food intake during the experiment.
On the morning of day 5, all animals were fasted; beginning two hours later the animals were decapitated and the lenses, sciatic nerves, and a 50-100 mg portion of the diaphragm were removed, weighed, and frozen in porcelain plates on dry ice.
Only two minor reagent changes were made: (a) the rinsing mixture was an aqueous 5% (w/v) trichloroacetic acid solution and (b) the stock solution was prepared by dissolving 25 mg of dulcitol in 100 mL of an aqueous trichloroacetic acid solution [N.B.: For each experiment the average value found in the tissue from rats fed the glucose diet was subtracted from the individual values found in the corresponding tissue in galactose-fed rats to obtain the amount of polyol accumulated.]
The figures under L, N and D represent the percentage decrease of galactitol accumulation in the tissues of the lens, sciatic nerve, and diaphragm, respectively for treated rats as compared to untreated rats.

Experiment [2] deals with T1, aldose reductase (Bos taurus, UniProt P16116).
T1 construct: preparation of the enzyme from bovine lens; from tissue; host or cells: bovine lens
The experiment can be described thus: In vitro aldose reductase inhibition (modified Hayman and Kinoshita procedure; enzyme from bovine lens). The class given is biochemical. The note with it: for inhibition at 10 µM: read-out: % Inhibition IN VITRO 10^-5 M; for inhibition at 1 µM: read-out: % Inhibition IN VITRO 10^-6 M; for inhibition at 0.1 µM: read-out: % Inhibition IN VITRO 10^-7 M. The source says: In the present case the procedure of Hayman and Kinoshita was modified in that the final chromatography step was omitted in the preparation of the enzyme from bovine lens.

Where [3] appears, read: 20% galactose diet, mg/kg by Example: 1:90, 2:128, 3:141, 4:93, 5:121, 6:110, 7:123, 8:87, 9:92, 10:102, 11:71, 12:84, 13:93, 14:112, 16:100, 17:100, 18:128, 19:117, 20:140, 21:103, 22:151, tolrestat:6.
Where [4] appears, read: lens, 20% galactose diet, mg/kg by Example: 1:90, 2:128, 3:141, 4:93, 5:121, 6:110, 7:123, 8:87, 9:92, 10:102, 11:71, 12:84, 13:93, 14:112, 16:100, 17:100, 18:128, 19:117, 20:140, 21:103, 22:151, tolrestat:6.

Like-named read-outs stand apart in the source and are kept apart here.

Turning to `CSc1nc(C2CCCCC2)n(CC(=O)O)c(=O)c1C#N` [Example 1, 5-Cyano-2-cyclohexyl-1,6-dihydro-4-(methylthio)-6-oxo-1-pyrimidineacetic Acid], the “% Lowering dulcitol accumulation IN VIVO, L” value in experiment [1] is listed as “N.S”. The “% Lowering dulcitol accumulation IN VIVO, D” value in experiment [1] (setting [3]) was 42%.

As for `N#Cc1c(SCc2ccccc2)nc(C2CCCCC2)n(CC(=O)O)c1=O` [Example 2], in experiment [1] (setting [3]), the “% Lowering dulcitol accumulation IN VIVO, D” value was “N.S”. Moreover, the “% Lowering dulcitol accumulation IN VIVO, L” value in experiment [1] (setting [4]) is given as “N.S”. Moreover, in experiment [2], the inhibition at 10 µM was 97%, the inhibition at 1 µM amounted to 96% and the inhibition at 0.1 µM came to 91%.

Consider `N#Cc1c(SCc2ccc(Br)cc2)nc(C2CCCCC2)n(CC(=O)O)c1=O` [Example 3], for which, in experiment [1] (setting [3]), the “% Lowering dulcitol accumulation IN VIVO, D” value is recorded as “N.S”. Also, the “% Lowering dulcitol accumulation IN VIVO, L” value in experiment [1] (setting [4]) is on record as “N.S”. In addition, in experiment [2], the inhibition at 10 µM came out at 96%, the inhibition at 1 µM is 96% and the inhibition at 0.1 µM stood at 93%.

Turning to `N#Cc1c(SCc2ccc(Br)cc2F)nc(C2CCCCC2)n(CC(=O)O)c1=O` [Example 4, 4-[[(4-bromo-2-fluorophenyl)methyl]thio]-5-cyano-2-cyclohexyl-1,6-dihydro-6-oxo-1-pyrimidineacetic acid], in experiment [1] (setting [3]), the “% Lowering dulcitol accumulation IN VIVO, D” value is “N.S”. Moreover, the “% Lowering dulcitol accumulation IN VIVO, L” value in experiment [1] (setting [4]) was 15%.

Take `CCCCCCSc1nc(C2CCCCC2)n(CC(=O)O)c(=O)c1C#N` [Example 5]: the “% Lowering dulcitol accumulation IN VIVO, D” value in experiment [1] (setting [3]) is given as “N.S”. Also, in experiment [1] (setting [4]), the “% Lowering dulcitol accumulation IN VIVO, L” value is “N.S”. For the same compound, in experiment [2], the inhibition at 10 µM was 94%, the inhibition at 1 µM came out at 95% and the inhibition at 0.1 µM came to 96%.

On to `CC(C)Sc1nc(C2CCCCC2)n(CC(=O)O)c(=O)c1C#N` [Example 6], for which the “% Lowering dulcitol accumulation IN VIVO, D” value in experiment [1] (setting [3]) is reported as “N.S”. For the same compound, in experiment [1] (setting [4]), the “% Lowering dulcitol accumulation IN VIVO, L” value is “N.S”. Also, in experiment [2], the inhibition at 10 µM amounted to 93%, the inhibition at 1 µM turned out to be 92% and the inhibition at 0.1 µM was 90%.

For `N#Cc1c(SCC2CCCCC2)nc(C2CCCCC2)n(CC(=O)O)c1=O` [Example 7], the “% Lowering dulcitol accumulation IN VIVO, D” value in experiment [1] (setting [3]) is given as “N.S”. In addition, the “% Lowering dulcitol accumulation IN VIVO, L” value in experiment [1] (setting [4]) was “N.S”. Further, in experiment [2], the inhibition at 10 µM turned out to be 96%, the inhibition at 1 µM was found to be 95% and the inhibition at 0.1 µM came to 90%.

For `CSc1nc(C(C)C)n(CC(=O)O)c(=O)c1C#N` [Example 8], in experiment [1] (setting [3]), the “% Lowering dulcitol accumulation IN VIVO, D” value was “N.S”. For the same compound, the “% Lowering dulcitol accumulation IN VIVO, L” value in experiment [1] (setting [4]) is reported as “N.S”. In experiment [2], the inhibition at 10 µM was 96%, the inhibition at 1 µM stood at 96% and the inhibition at 0.1 µM was found to be 94%.

`CC(C)Sc1nc(C(C)C)n(CC(=O)O)c(=O)c1C#N` [Example 9]: the “% Lowering dulcitol accumulation IN VIVO, D” value in experiment [1] (setting [3]) was 16%. The “% Lowering dulcitol accumulation IN VIVO, L” value in experiment [1] (setting [4]) is on record as “N.S”. In experiment [2], the inhibition at 10 µM is 96%, the inhibition at 1 µM came out at 97% and the inhibition at 0.1 µM was 91%.

With `CC(C)c1nc(SCc2ccccc2)c(C#N)c(=O)n1CC(=O)O` [Example 10], the “% Lowering dulcitol accumulation IN VIVO, D” value in experiment [1] (setting [3]) came out at 38%. For the same compound, the “% Lowering dulcitol accumulation IN VIVO, L” value in experiment [1] (setting [4]) was “N.S”. Moreover, in experiment [2], the inhibition at 10 µM came to 96%, the inhibition at 1 µM was 98% and the inhibition at 0.1 µM is 94%.

Turning to `CSc1nc(C)n(CC(=O)O)c(=O)c1C#N` [Example 11, 5-Cyano-1,6-dihydro-2-methyl-4-(methylthio)-6-oxo-1-pyrimidineacetic Acid], in experiment [1] (setting [3]), the “% Lowering dulcitol accumulation IN VIVO, D” value was “N.S”. Besides, the “% Lowering dulcitol accumulation IN VIVO, L” value in experiment [1] (setting [4]) was “N.S”. Also, in experiment [2], the inhibition at 10 µM is 86%, the inhibition at 1 µM stood at 84% and the inhibition at 0.1 µM worked out at 74%.

On to `Cc1nc(NCc2cccnc2)c(C#N)c(=O)n1CC(=O)O` [Example 12, 5-Cyano-1,6-dihydro-2-methyl-6-oxo-4-[(3-pyridinylmethyl)amino]-1-pyrimidineacetic Acid], for which the “% Lowering dulcitol accumulation IN VIVO, D” value in experiment [1] (setting [3]) is reported as “N.S”. Besides, in experiment [1] (setting [4]), the “% Lowering dulcitol accumulation IN VIVO, L” value was “N.S”. Also, in experiment [2], the inhibition at 10 µM came out at 88%, the inhibition at 1 µM worked out at 90% and the inhibition at 0.1 µM was 30%.

With `Cc1nc(N2CCCCC2)c(C#N)c(=O)n1CC(=O)O` [Example 13], the “% Lowering dulcitol accumulation IN VIVO, D” value in experiment [1] (setting [3]) is reported as “N.S”. For the same compound, in experiment [1] (setting [4]), the “% Lowering dulcitol accumulation IN VIVO, L” value was “N.S”. In addition, in experiment [2], the inhibition at 10 µM stood at 88%, the inhibition at 1 µM was 75% and the inhibition at 0.1 µM is 52%.

Turning to `Cc1nc(N2CCN(Cc3ccccc3)CC2)c(C#N)c(=O)n1CC(=O)O` [Example 14], the “% Lowering dulcitol accumulation IN VIVO, D” value in experiment [1] (setting [3]) is reported as “N.S”. In addition, in experiment [1] (setting [4]), the “% Lowering dulcitol accumulation IN VIVO, L” value is given as “N.S”. In experiment [2], the inhibition at 10 µM was 92%, the inhibition at 1 µM worked out at 89% and the inhibition at 0.1 µM worked out at 64%.

Turning to `Cc1nc(NCCc2ccccc2)c(C#N)c(=O)n1CC(=O)O` [Example 15], in experiment [1] (98 mg/kg), the “% Lowering dulcitol accumulation IN VIVO, D” value is recorded as “N.S”. For the same compound, the “% Lowering dulcitol accumulation IN VIVO, D” value in experiment [1] (196 mg/kg) is “N.S”. Further, the “% Lowering dulcitol accumulation IN VIVO, L” value in experiment [1] (lens, 98 mg/kg) is on record as “N.S”. The “% Lowering dulcitol accumulation IN VIVO, L” value in experiment [1] (lens, 196 mg/kg) was “N.S”. Further, in experiment [2], the inhibition at 10 µM was 89%, the inhibition at 1 µM was 88% and the inhibition at 0.1 µM is 71%.

As to `Cc1nc(NCC2CCCCC2)c(C#N)c(=O)n1CC(=O)O` [Example 16], the “% Lowering dulcitol accumulation IN VIVO, D” value in experiment [1] (setting [3]) is reported as “N.S”. The “% Lowering dulcitol accumulation IN VIVO, L” value in experiment [1] (setting [4]) is “N.S”. Also, in experiment [2], the inhibition at 10 µM stood at 93%, the inhibition at 1 µM is 91% and the inhibition at 0.1 µM turned out to be 72%.

`Cc1nc(NCc2ccccc2)c(C#N)c(=O)n1CC(=O)O` [Example 17]: the “% Lowering dulcitol accumulation IN VIVO, D” value in experiment [1] (setting [3]) is on record as “N.S”. The “% Lowering dulcitol accumulation IN VIVO, L” value in experiment [1] (setting [4]) is recorded as “N.S”. Besides, in experiment [2], the inhibition at 10 µM is 96%, the inhibition at 1 µM turned out to be 90% and the inhibition at 0.1 µM stood at 78%.

As for `Cc1nc(N2CCC(Cc3ccccc3)CC2)c(C#N)c(=O)n1CC(=O)O` [Example 18], the “% Lowering dulcitol accumulation IN VIVO, D” value in experiment [1] (setting [3]) was “N.S”. In experiment [1] (setting [4]), the “% Lowering dulcitol accumulation IN VIVO, L” value was “N.S”. In experiment [2], the inhibition at 10 µM came to 90%, the inhibition at 1 µM was found to be 88% and the inhibition at 0.1 µM is 81%.

With `N#Cc1c(-c2ccccc2)nc(-c2cccc3ccccc23)n(CC(=O)O)c1=O` [Example 19], in experiment [1] (setting [3]), the “% Lowering dulcitol accumulation IN VIVO, D” value is listed as 21%. Besides, the “% Lowering dulcitol accumulation IN VIVO, L” value in experiment [1] (setting [4]) is “N.S”. Also, in experiment [2], the inhibition at 10 µM was found to be 84%, the inhibition at 1 µM was determined as 68% and the inhibition at 0.1 µM worked out at 29%.

As for `N#Cc1c(-c2ccccc2)nc(-c2cccc3c(Br)cccc23)n(CC(=O)O)c1=O` [Example 20, 5-Cyano-1,6-dihydro-2-(5-bromo-1-naphthalenyl)-6-oxo-4-phenyl-1-pyrimidineacetic Acid], in experiment [1] (setting [3]), the “% Lowering dulcitol accumulation IN VIVO, D” value is “N.S”. Moreover, the “% Lowering dulcitol accumulation IN VIVO, L” value in experiment [1] (setting [4]) was “N.S”. In experiment [2], the inhibition at 10 µM turned out to be 82%, the inhibition at 1 µM was 71% and the inhibition at 0.1 µM was 22%.

(Values after patent US4786638A, “2,4-disubstituted-5-cyano-1,6-dihydro-6-oxo-1-pyrimidineacetic acid aldose reductase inhibitors” (American Home Products Corporation, priority 1987, dated 1988).)
